Experimental data: patent US20080038357A1, “Inhalation Powder Containing the CGRP antagonist BIBN4096 and Process for the Preparation Thereof” (priority 2002, published 2008)

Experiments:
[1] = Stability of the amorphous state of the microparticles; type: physicochemical; conditions: normal conditions (T<50° C., relative humidity <75%)
[2] = conventional preparations; cited from earlier work
[3] = Bioavailability after administration by inhalation; conditions: in vivo, inhaled or intranasal; administered by inhalation as spherically nanostructured microparticles; based on the fine fraction of the formulation (FPD, USP 24 Suppl. 2000)

- stability of amorphous state [1]: stable in their amorphous state
- bioavailability [3]: ~60%
SMILES: NCCCC[C@H](NC(=O)[C@@H](Cc1cc(Br)c(O)c(Br)c1)NC(=O)N1CCC(N2Cc3ccccc3NC2=O)CC1)C(=O)N1CCN(c2ccncc2)CC1 [BIBN4096, 1-[N^2-[3,5-dibromo-N-[[4-(3,4-dihydro-2(1H)-oxoquinazolin-3-yl)-1-piperidinyl]carbonyl]-D-tyrosyl]-L-lysyl]-4-(4-pyridinyl)-piperazine]
- bioavailability by oral route [2]: only limited bioavailability by oral route
